The values below come from ChEMBL document CHEMBL3804771, “De novo design of helical peptides to inhibit tumor necrosis factor- by disrupting its trimer formation” (Medchemcomm, 2016).

Calls of active or inactive are those of the source. The calls are words filed in the database; no cut-off is given here.

Data set [1] addresses T1, Tumor necrosis factor (Homo sapiens, UniProt P01375). Put plainly: Inhibition of human TNFalpha expressed in Escherichia coli assessed as decrease in TNF-alpha trimer level after 15 mins by SDS-PAGE analysis.
In data set [2] the target is T1, Tumor necrosis factor. Put plainly: Inhibition of human TNFalpha expressed in Escherichia coli assessed as increase in TNF-alpha dimer level after 15 mins by SDS-PAGE analysis.
Data set [3] concerns the target T1, Tumor necrosis factor. Nature of the data set: Inhibition of human TNFalpha expressed in Escherichia coli assessed as increase in TNFalpha monomer level after 15 mins by SDS-PAGE analysis.
Data set [4] addresses T1, Tumor necrosis factor. Put plainly: Inhibition of human TNFalpha expressed in Escherichia coli assessed as trimer to dimer transition at 5 uM measured after 12 hrs by mass spectrometry.
Data set [5] deals with T1, Tumor necrosis factor. Put plainly: Inhibition of human TNFalpha induced NFkappaB activation in HEK293T cells after 6 hrs by dual-glo luciferase assay. Type of data set: cell-based. Particulars: for inhibition: HEK-293T.
Data set [6] addresses T1, Tumor necrosis factor. Nature of the data set: Binding affinity to human TNFalpha expressed in Escherichia coli by surface plasmon resonance method. For orientation: Surface plasmon resonance follows binding to a sensor surface in real time, without labels.
Data set [7] in a line: Cytotoxicity against HEK293T cells at >300 uM after 24 hrs by CCK8 assay. Type of data set: cell-based. As to conditions: human, hek-293t. (In general: Formazan colour is commonly taken as a measure of viable cells.)
The nature of data set [8]: Cytotoxicity against HEK293T cells assessed as cell death at 30 uM after 24 hrs by CCK8 assay. Type of data set: cell-based. Particulars: human, hek-293t.

T1 sequence (P01375 whole entry): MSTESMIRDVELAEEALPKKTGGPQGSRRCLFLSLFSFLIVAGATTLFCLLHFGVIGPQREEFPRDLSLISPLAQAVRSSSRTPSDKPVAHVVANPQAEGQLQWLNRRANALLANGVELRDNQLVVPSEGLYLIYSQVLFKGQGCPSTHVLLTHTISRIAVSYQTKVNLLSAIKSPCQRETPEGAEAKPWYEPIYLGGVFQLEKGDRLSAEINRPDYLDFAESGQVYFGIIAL

On to H-SEQELKQIFQQVFQWWQLWEQFEKQ-OH, for which the inhibition result in data set [1], in data set [2], in data set [3] and in data set [4] was “Active” in each case.
As for `CC[C@@H](C)[C@H](NC(=O)[C@H](CCC(N)=O)NC(=O)[C@H](CCC(N)=O)NC(=O)[C@H](Cc1ccccc1)NC(=O)[C@H](CCC(=O)O)NC(=O)[C@H](CCC(N)=O)NC(=O)[C@@H](NC(=O)[C@H](CCC(=O)O)NC(=O)[C@H](CCC(N)=O)NC(=O)[C@@H](Cc1c[nH]c2ccccc12)NC(=O)[C@H](CC(N)=O)NC(=O)[C@H](CCCNC(=N)N)NC(=O)[C@H](CCCCN)NC(=O)[C@H](CC(C)C)NC(=O)[C@H](CCC(=O)O)NC(=O)[C@H](CC(=O)O)NC(=O)[C@H](CCC(=O)O)NC(=O)[C@H](C)NC(=O)[C@H](N)CC(=O)O)[C@@H](C)CC)C(=O)N[C@@H](C)C(=O)N[C@@H](CCC(N)=O)C(=O)N[C@@H](CCSC)C(=O)N[C@@H](Cc1ccccc1)C(=O)N[C@@H](Cc1ccccc1)C(=O)N[C@@H](CCC(=O)O)C(=O)N[C@@H](Cc1c[nH]c2ccccc12)C(=O)N[C@@H](Cc1c[nH]c2ccccc12)C(=O)N[C@@H](CCC(N)=O)C(=O)N[C@H](CCCCN)C(=O)N[C@@H](CC(=O)O)C(=O)O`, the inhibition result in data set [5] was “inactive”.
In data set [6], H-LREQRLKEHLQEIQIFEQWLQIFQEQFQKF-OH yielded a dissociation constant (Kd) of 500 nM. Further, the inhibition result in data set [5] is “inactive”. The Activity result in data set [7] was “Non-toxic”.
As for `CC[C@@H](C)[C@@H](NC(=O)[C@@H](CCC(N)=O)NC(=O)[C@@H](CCC(N)=O)NC(=O)[C@@H](Cc1ccccc1)NC(=O)[C@@H](CCC(=O)O)NC(=O)[C@@H](CCC(N)=O)NC(=O)[C@H](NC(=O)[C@@H](CCC(=O)O)NC(=O)[C@@H](CCC(N)=O)NC(=O)[C@H](Cc1c[nH]c2ccccc12)NC(=O)[C@H](CC(N)=O)NC(=O)[C@H](CCCNC(=N)N)NC(=O)[C@H](CCCCN)NC(=O)[C@H](CC(C)C)NC(=O)[C@H](CCC(=O)O)NC(=O)[C@H](CC(=O)O)NC(=O)[C@H](CCC(=O)O)NC(=O)[C@H](C)NC(=O)[C@H](N)CC(=O)O)[C@@H](C)CC)C(=O)N[C@H](CC(C)C)C(=O)N[C@H](CCC(N)=O)C(=O)N[C@H](CCSC)C(=O)N[C@H](Cc1ccccc1)C(=O)N[C@H](Cc1ccccc1)C(=O)N[C@H](CCC(=O)O)C(=O)N[C@H](Cc1c[nH]c2ccccc12)C(=O)N[C@@H](Cc1c[nH]c2ccccc12)C(=O)N[C@@H](CCC(N)=O)C(=O)N[C@H](CCCCN)C(=O)N[C@@H](CC(=O)O)C(=O)O`, the inhibition entry in data set [5] was “Dose-dependent effect”. Besides, the inhibition entry in data set [1], in data set [2], in data set [3] and in data set [4] was “Active” each time.
H-QEKWFAEQYARMVLEWIEKELKESL-OH returned a Kd in data set [6] of 500 nM. In data set [5], the IC50 is 20700 nM. Further, the inhibition entry in data set [5] is “Dose-dependent effect”. Moreover, the inhibition result in data set [1], in data set [2], in data set [3] and in data set [4] was “Active” each time. Moreover, in data set [7], the Activity entry is “Non-toxic”.
In the case of `Cc1cc2occ(CN(C)CCN(C)Cc3cn(-c4cccc(C(F)(F)F)c4)c4ccccc34)c(=O)c2cc1C`, in data set [8], the mortality was determined as 50%.
`CC[C@H](C)[C@H](NC(=O)[C@H](CCC(N)=O)NC(=O)[C@H](CCC(N)=O)NC(=O)[C@H](Cc1ccccc1)NC(=O)[C@H](CCC(=O)O)NC(=O)[C@H](CCC(N)=O)NC(=O)[C@@H](NC(=O)[C@H](CCC(=O)O)NC(=O)[C@H](CCC(N)=O)NC(=O)[C@H](Cc1c[nH]c2ccccc12)NC(=O)[C@H](CC(N)=O)NC(=O)[C@H](CCCNC(=N)N)NC(=O)[C@H](CCCCN)NC(=O)[C@H](CC(C)C)NC(=O)[C@H](CCC(=O)O)NC(=O)[C@H](CC(=O)O)NC(=O)[C@H](CCC(=O)O)NC(=O)[C@H](C)NC(=O)[C@@H](N)CC(=O)O)[C@@H](C)CC)C(=O)N[C@@H](CC(C)C)C(=O)N[C@@H](CCC(N)=O)C(=O)N[C@@H](CCSC)C(=O)N[C@@H](Cc1ccccc1)C(=O)N[C@@H](Cc1ccccc1)C(=O)N[C@@H](CCC(=O)O)C(=O)N[C@@H](Cc1c[nH]c2ccccc12)C(=O)N[C@@H](Cc1c[nH]c2ccccc12)C(=O)N[C@@H](CCC(N)=O)C(=O)N[C@@H](CCCCN)C(=O)N[C@@H](CC(=O)O)C(=O)O` displayed a Kd in data set [6] of 390 nM. In data set [5], this compound displayed an IC50 of 11900 nM. Besides, the Activity entry in data set [7] is “Non-toxic”.
H-RQQEELYKKWLQEFWKWFQIALQLD-OH: binding in data set [6] was characterised by a dissociation constant (Kd) of 500 nM. In addition, half-maximal inhibition in data set [5] (IC50) required 32600 nM. Besides, the inhibition result in data set [5] was “Dose-dependent effect”. Moreover, the inhibition entry in data set [1], in data set [2], in data set [3] and in data set [4] was “Active” each time. Besides, the Activity entry in data set [7] was “Non-toxic”.
For H-DAEDELKRNWQAIQEFQQILQMFFEWWQKD-OH, the inhibition result in data set [5] was “inactive”.
Turning to `CC[C@@H](C)[C@H](NC(=O)[C@H](CCC(=O)O)NC(=O)[C@H](CCC(N)=O)NC(=O)[C@@H](Cc1c[nH]c2ccccc12)NC(=O)[C@@H](CC(N)=O)NC(=O)[C@@H](CCCNC(=N)N)NC(=O)[C@@H](CCCCN)NC(=O)[C@@H](CC(C)C)NC(=O)[C@@H](CCC(=O)O)NC(=O)[C@@H](CC(=O)O)NC(=O)[C@@H](CCC(=O)O)NC(=O)[C@@H](C)NC(=O)[C@@H](N)CC(=O)O)C(=O)N[C@@H](CCC(N)=O)C(=O)N[C@@H](CCC(=O)O)C(=O)N[C@@H](C)C(=O)N[C@@H](CCC(N)=O)C(=O)N[C@@H](CCC(N)=O)C(=O)N[C@H](C(=O)N[C@@H](CC(C)C)C(=O)N[C@@H](CCC(N)=O)C(=O)N[C@@H](CCSC)C(=O)N[C@@H](Cc1ccccc1)C(=O)N[C@@H](Cc1ccccc1)C(=O)N[C@@H](CCC(=O)O)C(=O)N[C@@H](Cc1c[nH]c2ccccc12)C(=O)N[C@H](Cc1c[nH]c2ccccc12)C(=O)N[C@H](CCC(N)=O)C(=O)N[C@@H](CCCCN)C(=O)N[C@H](CC(=O)O)C(=O)O)[C@@H](C)CC`, the inhibition result in data set [5] is “inactive”.

As usually defined, the Kd is the concentration at which binding is half-saturated. Lower therefore signals higher affinity. Usually IC50 stands for the point on the concentration scale where inhibition reaches its midpoint. By mortality is commonly meant the share of the test organisms that died.
